According to patent US6710041B2, “Pyrrolo[2,1-B][3,1] benzothiazepines and their use for the preparation of medicaments with antipsychotic activity” (Sigma-Tau Industrie Farmaceutiche Riunite S.p.A., priority 2003, dated 2004):

Columns and labels:
Wistar male rats = experiment: Evaluation of catalepsy (bar test); format: in vivo, rat
Procedure: The test was performed on Wistar male rats (N=7 animals); catalepsy was evaluated by means of a metal bar measuring 0.6 cm in diameter positioned at a distance of 10 cm from the work surface. The substance studied, in the form of maleic acid salt (ST1699), was administered subcutaneously 30 minutes prior to the evaluation. The subsequent evaluation times were 60, 90, 120, 180, 240, and 300 minutes after administration.
By means of the test used for evaluating catalepsy in the rat, ST1699 affinity for the D2 receptor subtype of the nigrostriatal dopaminergic system was verified.
Table 4 gives the percentages of animals presenting catalepsy at the various different times after administration of subacute doses of the study compound.

5-HT2 versus D2 receptor = experiment: Classification of typical and atypical antipsychotics by 5-HT2 versus D2 pKi ratio and Log Y score; conditions: for LogY: Log Y score smaller than 6.48 = atypical profile
H1 histamine receptor = target: T1, H1 histamine receptor (Rattus norvegicus, UniProt P31390); experiment: Interaction with H1 receptors, [3H]-pyrilamine binding, rat cortex membranes; conditions: Table 1; mean and standard deviation; read-out: H1 Ki ± ds
T1 construct: from tissue; host or cells: rat cortex membranes
T1 sequence (P31390 whole entry): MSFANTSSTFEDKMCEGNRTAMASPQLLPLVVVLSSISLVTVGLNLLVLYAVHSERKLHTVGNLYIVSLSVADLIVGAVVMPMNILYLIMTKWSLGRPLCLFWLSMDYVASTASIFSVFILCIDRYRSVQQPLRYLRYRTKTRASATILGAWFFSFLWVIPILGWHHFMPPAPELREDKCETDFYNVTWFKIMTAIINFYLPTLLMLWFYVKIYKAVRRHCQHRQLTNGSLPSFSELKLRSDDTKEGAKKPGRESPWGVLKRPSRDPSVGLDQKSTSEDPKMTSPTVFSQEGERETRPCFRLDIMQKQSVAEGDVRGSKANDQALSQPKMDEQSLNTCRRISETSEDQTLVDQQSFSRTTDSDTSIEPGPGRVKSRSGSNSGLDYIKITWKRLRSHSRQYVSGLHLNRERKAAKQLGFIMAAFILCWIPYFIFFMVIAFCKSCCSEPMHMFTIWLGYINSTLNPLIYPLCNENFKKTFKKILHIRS
Procedure: Interaction with H1 Receptors
Aspecific binding was determined in the presence of 100 μM of pyrilamine.

## O=C(CCCN1CCC(O)(c2ccc(Cl)cc2)CC1)c1ccc(F)cc1 [Haloperidol, haloperidol, reference compound]
Wistar male rats; 0.2 mg/kg, 30 min after administration
  percentage of animals presenting catalepsy: 0%
Wistar male rats; 0.2 mg/kg, 60 min after administration
  percentage of animals presenting catalepsy: 70%
Wistar male rats; 0.2 mg/kg, 90 min after administration
  percentage of animals presenting catalepsy: 100%
Wistar male rats; 0.2 mg/kg, 120 min after administration
  percentage of animals presenting catalepsy: 100%
Wistar male rats; 0.2 mg/kg, 180 min after administration
  percentage of animals presenting catalepsy: 100%

## CN1CCN(C2=Cn3cccc3Sc3ccc(Cl)cc32)CC1 [ST1508, 7-chloro-9-(4-methyl-1-piperazinyl)pyrrolo[2,1-b][1,3]benzothiazepine]
5-HT2 versus D2 receptor
  LogY: 8.20
H1 histamine receptor
  Ki: 2.7 ± 0.02 nM

## CN1CCN(C2=Cn3cccc3Sc3ccc(Cl)cc32)CC1 [ST1699, 7-chloro-9-(4-methyl-1-piperazinyl)pyrrolo[2,1-b][1,3]benzothiazepine]
Wistar male rats; 0.3 mg/kg subcutaneously, 30 min after administration
  percentage of animals presenting catalepsy: 0%
Wistar male rats; 0.3 mg/kg subcutaneously, 60 min after administration
  percentage of animals presenting catalepsy: 0%
Wistar male rats; 0.3 mg/kg subcutaneously, 90 min after administration
  percentage of animals presenting catalepsy: 17%
Wistar male rats; 0.3 mg/kg subcutaneously, 120 min after administration
  percentage of animals presenting catalepsy: 17%
Wistar male rats; 0.3 mg/kg subcutaneously, 180 min after administration
  percentage of animals presenting catalepsy: 33%
Wistar male rats; 0.6 mg/kg subcutaneously, 30 min after administration
  percentage of animals presenting catalepsy: 33%
Wistar male rats; 0.6 mg/kg subcutaneously, 60 min after administration
  percentage of animals presenting catalepsy: 66%
Wistar male rats; 0.6 mg/kg subcutaneously, 90 min after administration
  percentage of animals presenting catalepsy: 83%
Wistar male rats; 0.6 mg/kg subcutaneously, 120 min after administration
  percentage of animals presenting catalepsy: 100%
Wistar male rats; 0.6 mg/kg subcutaneously, 180 min after administration
  percentage of animals presenting catalepsy: 100%
Wistar male rats; in words, highest dose among those used (0.6 mg/kg), effects comparable to 0.2 mg/kg of haloperidol
  occurrence of catalepsy: induced the occurrence of catalepsy

## Cc1ccc2n1C=C(N1CCN(C)CC1)c1ccccc1S2 [ST2092, 1-Methyl-9-(4-methylpiperazin-1-yl)pyrrolo[2,1-b][1,3]benzothiazepine]
5-HT2 versus D2 receptor
  LogY: 3.19
5-HT2 versus D2 receptor; in words
  binding affinity at 5 HT2 receptor compared with D2 dopamine receptor: greater than D2 dopamine receptor
